Source: US12139492B2 (Endotarget Inc., priority 2021, dated 2024)

How the values were obtained:
BTK = BTK (Homo sapiens, UniProt Q06187); assay: Degradation of BTK protein in Namalwa cells (Western blot; DC50, Dmax); conditions: for DC50: BTK degradation, cell line not given
Mino cells = assay: Antiproliferative effect, MTS cell viability assay, Mino cells; type: cell-based; conditions: Homo sapiens, MINO, Mino mantle cell lymphoma cells; read-out: IC50 (anti-proliferation) Mino cells
How it was run: (§1)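 MTS read-out, A490 of formazan from metabolically active cells; compound 0–10 μM (0, 0.001, 0.01, 0.1, 1, 10 μM), 72 h exposure.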

JeKo-1 cells = assay: Antiproliferative effect, MTS cell viability assay, JeKo-1 cells; type: cell-based; conditions: Homo sapiens; JeKo-1 mantle cell lymphoma cells; read-out: IC50 (anti-proliferation) JeKO-1 cells
How it was run: as §1

Chain of BTK (Q06187 whole entry): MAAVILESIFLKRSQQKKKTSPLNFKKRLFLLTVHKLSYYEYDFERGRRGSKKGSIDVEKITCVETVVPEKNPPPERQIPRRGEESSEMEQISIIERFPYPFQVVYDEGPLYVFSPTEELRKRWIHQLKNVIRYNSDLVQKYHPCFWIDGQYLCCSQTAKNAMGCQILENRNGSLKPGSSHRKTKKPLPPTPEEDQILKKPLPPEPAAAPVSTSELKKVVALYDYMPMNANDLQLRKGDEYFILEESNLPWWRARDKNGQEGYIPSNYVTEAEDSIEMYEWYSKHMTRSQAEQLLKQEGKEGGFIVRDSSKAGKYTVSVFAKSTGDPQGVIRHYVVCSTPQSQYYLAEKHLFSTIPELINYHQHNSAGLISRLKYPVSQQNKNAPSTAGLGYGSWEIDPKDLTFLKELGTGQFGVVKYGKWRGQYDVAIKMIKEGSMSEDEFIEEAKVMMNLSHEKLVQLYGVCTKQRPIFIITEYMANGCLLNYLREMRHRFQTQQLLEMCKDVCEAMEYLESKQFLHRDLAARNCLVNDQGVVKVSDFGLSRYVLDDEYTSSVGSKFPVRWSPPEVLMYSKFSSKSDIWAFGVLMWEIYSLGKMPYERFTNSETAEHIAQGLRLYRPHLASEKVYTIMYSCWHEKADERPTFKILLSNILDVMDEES

SMILES	Dmax (BTK) [%]	DC50 (BTK) [nM]	IC50 (Mino cells) [nM]	IC50 (JeKo-1 cells) [nM]
NC(=O)c1c(-c2ccc(Oc3ccccc3)cc2)nn2c1NCC[C@H]2C1CCN(C2CCN(C(=O)N3CCC(C4CCN(c5ccc6c(c5)CN(C5CCC(=O)NC5=O)C6=O)CC4)CC3)CC2)CC1 (stereo partly drawn) [Compound 384, (7S)-7-(1′-(1′-(2-(2,6-dioxopiperidin-3-yl)-1-oxoisoindolin-5-yl)-[4,4′-bipiperidine]-1-carbonyl)-[1,4′-bipiperidin]-4-yl)-2-(4-phenoxyphenyl)-4,5,6,7-tetrahydropyrazolo[1,5-a]pyrimidine-3-carboxamide]	> 90	< 10	< 1000	1000 to 10000
NC(=O)c1c(-c2ccc(Oc3ccccc3)cc2)nn2c1NCC[C@H]2C1CCN(C2CCN(C(=O)N3CCN(C4CCN(c5ccc6c(c5)C(=O)N(C5CCC(=O)NC5=O)C6=O)CC4)CC3)CC2)CC1 (stereo partly drawn) [Compound 385, (7S)-7-(1′-(4-(1-(2-(2,6-dioxopiperidin-3-yl)-1,3-dioxoisoindolin-5-yl)piperidin-4-yl)piperazine-1-carbonyl)-[1,4′-bipiperidin]-4-yl)-2-(4-phenoxyphenyl)-4,5,6,7-tetrahydropyrazolo[1,5-a]pyrimidine-3-carboxamide]	> 90	< 10	< 1000	1000 to 10000
NC(=O)c1c(-c2ccc(Oc3ccccc3)cc2)nn2c1NCC[C@H]2C1CCN(C2CCN(C(=O)N3CCN(C4CCN(c5ccc6c(c5)CN(C5CCC(=O)NC5=O)C6=O)CC4)CC3)CC2)CC1 (stereo partly drawn) [Compound 386, (7S)-7-(1′-(4-(1-(2-(2,6-dioxopiperidin-3-yl)-1-oxoisoindolin-5-yl)piperidin-4-yl)piperazine-1-carbonyl)-[1,4′-bipiperidin]-4-yl)-2-(4-phenoxyphenyl)-4,5,6,7-tetrahydropyrazolo[1,5-a]pyrimidine-3-carboxamide]	> 90	< 10	< 1000	< 1000
NC(=O)c1c(-c2ccc(Oc3ccccc3)cc2)nn2c1NCC[C@H]2C1CCN(C2CCN(C(=O)N3CCC(N4CCC(c5ccc6c(c5)C(=O)N(C5CCC(=O)NC5=O)C6=O)CC4)CC3)CC2)CC1 (stereo partly drawn) [Compound 387, (7S)-7-(1′-(4-(2-(2,6-dioxopiperidin-3-yl)-1,3-dioxoisoindolin-5-yl)-[1,4′-bipiperidine]-1′-carbonyl)-[1,4′-bipiperidin]-4-yl)-2-(4-phenoxyphenyl)-4,5,6,7-tetrahydropyrazolo[1,5-a]pyrimidine-3-carboxamide]	> 90	10 to 50	1000 to 10000	1000 to 10000
NC(=O)c1c(-c2ccc(Oc3ccccc3)cc2)nn2c1NCC[C@H]2C1CCN(C2CCN(C(=O)N3CCC(N4CCC(c5ccc6c(c5)CN(C5CCC(=O)NC5=O)C6=O)CC4)CC3)CC2)CC1 (stereo partly drawn) [Compound 388, (7S)-7-(1′-(4-(2-(2,6-dioxopiperidin-3-yl)-1-oxoisoindolin-5-yl)-[1,4′-bipiperidine]-1′-carbonyl)-[1,4′-bipiperidin]-4-yl)-2-(4-phenoxyphenyl)-4,5,6,7-tetrahydropyrazolo[1,5-a]pyrimidine-3-carboxamide]	> 90	10 to 50	< 1000	1000 to 10000
NC(=O)c1c(-c2ccc(Oc3ccccc3)cc2)nn2c1NCC[C@H]2C1CCN(C2CCN(C(=O)N3CCC(CN4CCN(c5ccc6c(c5)C(=O)N(C5CCC(=O)NC5=O)C6=O)CC4)CC3)CC2)CC1 (stereo partly drawn) [Compound 389, (7S)-7-(1′-(4-((4-(2-(2,6-dioxopiperidin-3-yl)-1,3-dioxoisoindolin-5-yl)piperazin-1-yl)methyl)piperidine-1-carbonyl)-[1,4′-bipiperidin]-4-yl)-2-(4-phenoxyphenyl)-4,5,6,7-tetrahydropyrazolo[1,5-a]pyrimidine-3-carboxamide]	> 90	10 to 50	1000 to 10000	1000 to 10000
